Laboratory results as given in PubChem BioAssay AID248 (DTP/NCI, 2004).
Where “and” joins values, the source holds several entries; their conditions need not be identical. Identical values can stand only once. Toxic doses and inconclusive results are not listed. Peptide text beside a SMILES is read from it. * marks the point of attachment. Trt = c1ccc(C(c2ccccc2)(c2ccccc2)*)cc1

System: L1210 leukemia ip in BDF1 mice, survival T/C
Test: NCI In Vivo Anticancer Drug Screen. Data for tumor model L1210 Leukemia (intraperitoneal) in B6D2F1 (BDF1) mice
Details: higher = longer survival
In short: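 Each compound was tested against a transplantable tumor grown in mice. The endpoint was survival, with treated animals benchmarked against vehicle controls as a simple ratio.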

[1] = endpoint: mean survival time, dose: 100.0 mg/kg/injection, schedule: Q04DX003 (ip), vehicle: other
[2] = endpoint: mean survival time, dose: 200.0 mg/kg/injection, schedule: Q04DX003 (ip), vehicle: other
[3] = endpoint: mean survival time, dose: 400.0 mg/kg/injection, schedule: Q04DX003 (ip), vehicle: other
[4] = endpoint: mean survival time, dose: 100.0 mg/kg/injection, schedule: Q01DX009 (ip), vehicle: saline with Tween-80
[5] = endpoint: mean survival time, dose: 200.0 mg/kg/injection, schedule: Q01DX009 (ip), vehicle: saline with Tween-80
[6] = endpoint: mean survival time, dose: 400.0 mg/kg/injection, schedule: Q01DX009 (ip), vehicle: saline with Tween-80
[7] = endpoint: mean survival time, dose: 100.0 mg/kg/injection, schedule: Q01DX009 (ip), vehicle: saline
[8] = endpoint: mean survival time, dose: 200.0 mg/kg/injection, schedule: Q01DX009 (ip), vehicle: saline
[9] = endpoint: mean survival time, dose: 400.0 mg/kg/injection, schedule: Q01DX009 (ip), vehicle: saline
[10] = endpoint: mean survival time, dose: 75.0 mg/kg/injection, schedule: Q04DX003 (ip), vehicle: saline
[11] = endpoint: mean survival time, dose: 100.0 mg/kg/injection, schedule: Q04DX003 (ip), vehicle: Klucel (hydroxypropylcellulose) (HPC)
[12] = endpoint: mean survival time, dose: 200.0 mg/kg/injection, schedule: Q04DX003 (ip), vehicle: Klucel (hydroxypropylcellulose) (HPC)
[13] = endpoint: mean survival time, dose: 400.0 mg/kg/injection, schedule: Q04DX003 (ip), vehicle: Klucel (hydroxypropylcellulose) (HPC)
[14] = endpoint: mean survival time, dose: 100.0 mg/kg/injection, schedule: Q04DX003 (ip), vehicle: saline with Tween-80

CC1(C(Cl)Cl)C=CC(=O)C=C1
T/C (endpoint: mean survival time, dose: 100.0 mg/kg/injection, schedule: Q01DX009 (ip), vehicle: Klucel (hydroxypropylcellulose) (HPC)): 90 % of control | T/C [1]: 103 % of control | T/C (endpoint: mean survival time, dose: 200.0 mg/kg/injection, schedule: Q01DX009 (ip), vehicle: Klucel (hydroxypropylcellulose) (HPC)): 87 % of control | T/C [2]: 111 % of control | T/C (endpoint: mean survival time, dose: 400.0 mg/kg/injection, schedule: Q01DX009 (ip), vehicle: Klucel (hydroxypropylcellulose) (HPC)): 106 % of control | T/C [3]: 95 % of control

C=C(C)CCCC(C)C/C=N/NC(=O)CNC(=O)C=[N+]=[N-] (configuration not stated) (tested in a mixture with another compound)
T/C (endpoint: mean survival time, dose: 50.0 mg/kg/injection, schedule: Q01DX001 (ip), vehicle: water): 100 % of control | T/C (endpoint: mean survival time, dose: 100.0 mg/kg/injection, schedule: Q01DX001 (ip), vehicle: water): 93 % of control | T/C (endpoint: mean survival time, dose: 200.0 mg/kg/injection, schedule: Q01DX001 (ip), vehicle: water): 91 % of control | T/C (endpoint: mean survival time, dose: 400.0 mg/kg/injection, schedule: Q01DX001 (ip), vehicle: water): 100 % of control

Cc1cc(C(C)(C)C)c(OC(=S)N(C)C)c(C(C)(C)C)c1
T/C (endpoint: mean survival time, dose: 12.5 mg/kg/injection, schedule: Q04DX003 (ip), vehicle: saline with Tween-80): 96 % of control | T/C (endpoint: mean survival time, dose: 25.0 mg/kg/injection, schedule: Q04DX003 (ip), vehicle: saline with Tween-80): 94 % of control | T/C (endpoint: mean survival time, dose: 50.0 mg/kg/injection, schedule: Q04DX003 (ip), vehicle: saline with Tween-80): 100 % of control

Oc1ccc(Cl)cc1Cc1cc(Cl)cc(Cc2cc(Cl)ccc2O)c1O
T/C (endpoint: mean survival time, dose: 12.5 mg/kg/injection, schedule: Q01DX009 (ip), vehicle: saline with Tween-80): 98 % of control | T/C (endpoint: mean survival time, dose: 25.0 mg/kg/injection, schedule: Q01DX009 (ip), vehicle: saline with Tween-80): 102 % of control | T/C (endpoint: mean survival time, dose: 50.0 mg/kg/injection, schedule: Q01DX009 (ip), vehicle: saline with Tween-80): 109 % of control

O=C(CC(NC(=O)OCc1ccccc1)C(=O)O)OCc1ccccc1 (configuration not stated)
T/C (endpoint: mean survival time, dose: 100.0 mg/kg/injection, schedule: Q01DX009 (ip), vehicle: saline sonified): 95 % of control | T/C [4]: 103 % of control | T/C (endpoint: mean survival time, dose: 100.0 mg/kg/injection, schedule: Q04DX003 (ip), vehicle: saline sonified): 97 % of control | T/C (endpoint: mean survival time, dose: 200.0 mg/kg/injection, schedule: Q01DX009 (ip), vehicle: saline sonified): 94 % of control | T/C [5]: 94 % of control | T/C (endpoint: mean survival time, dose: 200.0 mg/kg/injection, schedule: Q04DX003 (ip), vehicle: saline sonified): 89 % of control | T/C (endpoint: mean survival time, dose: 400.0 mg/kg/injection, schedule: Q01DX009 (ip), vehicle: saline sonified): 90 % of control | T/C [6]: 94 % of control | T/C (endpoint: mean survival time, dose: 400.0 mg/kg/injection, schedule: Q04DX003 (ip), vehicle: saline sonified): 103 % of control

O=C(Nc1cc([N+](=O)[O-])ccc1F)Oc1ccc2ccccc2c1
T/C [7]: 111 % of control | T/C [8]: 95 % of control | T/C [9]: 106 % of control

CCCCCC[N+]1(C)CC2C3C=CC(C3)C2C1 (configuration not stated)
T/C (endpoint: mean survival time, dose: 12.5 mg/kg/injection, schedule: Q04DX003 (ip), vehicle: saline): 103 % of control | T/C (endpoint: mean survival time, dose: 25.0 mg/kg/injection, schedule: Q04DX003 (ip), vehicle: saline): 97 % of control | T/C (endpoint: mean survival time, dose: 50.0 mg/kg/injection, schedule: Q04DX003 (ip), vehicle: saline): 97 % of control | T/C [10]: 92 % of control

CCCCCCCCCCCCCCCC(=O)Nc1c(C)cccc1Cl
T/C (endpoint: mean survival time, dose: 100.0 mg/kg/injection, schedule: Q04DX002 (ip), vehicle: saline with Tween-80): 96 % of control | T/C (endpoint: mean survival time, dose: 200.0 mg/kg/injection, schedule: Q04DX002 (ip), vehicle: saline with Tween-80): 88 % of control | T/C (endpoint: mean survival time, dose: 400.0 mg/kg/injection, schedule: Q04DX002 (ip), vehicle: saline with Tween-80): 93 % of control

CCCC[n+]1cccc(C#N)c1
T/C (endpoint: mean survival time, dose: 18.75 mg/kg/injection, schedule: Q01DX009 (ip), vehicle: saline): 92 % of control | T/C (endpoint: mean survival time, dose: 37.5 mg/kg/injection, schedule: Q01DX009 (ip), vehicle: saline): 101 % of control | T/C (endpoint: mean survival time, dose: 37.5 mg/kg/injection, schedule: Q04DX003 (ip), vehicle: saline): 93 % of control | T/C (endpoint: mean survival time, dose: 75.0 mg/kg/injection, schedule: Q01DX001 (ip), vehicle: saline): 98 % of control | T/C (endpoint: mean survival time, dose: 75.0 mg/kg/injection, schedule: Q01DX009 (ip), vehicle: saline): 90 % of control | T/C [10]: 93 % of control | T/C (endpoint: mean survival time, dose: 150.0 mg/kg/injection, schedule: Q01DX001 (ip), vehicle: saline): 95 % of control | T/C (endpoint: mean survival time, dose: 150.0 mg/kg/injection, schedule: Q04DX003 (ip), vehicle: saline): 91 % of control

Cc1cc(NCCCCCCCNc2cc(C)nc3cc(N)ccc23)c2ccc(N)cc2n1
T/C (endpoint: median survival time, dose: 1.56 mg/kg/injection, schedule: Q01DX009 (ip), vehicle: water): 123 % of control | T/C (endpoint: median survival time, dose: 6.25 mg/kg/injection, schedule: Q01DX009 (ip), vehicle: water): 154 % of control | T/C (endpoint: median survival time, dose: 12.5 mg/kg/injection, schedule: Q01DX009 (ip), vehicle: water): 194 % of control | T/C (endpoint: median survival time, dose: 25.0 mg/kg/injection, schedule: Q01DX009 (ip), vehicle: water): 116 % of control

CN1CCC(OC(=O)C2CC(=O)NC(=O)C2)CC1
T/C [11]: 107 % of control | T/C [12]: 102 % of control | T/C [13]: 94 % of control

O=C1OC(OC(=O)c2ccccc2)C(Nc2ccccc2)=C1Br (configuration not stated)
T/C [14]: 91 % of control | T/C (endpoint: mean survival time, dose: 200.0 mg/kg/injection, schedule: Q04DX003 (ip), vehicle: saline with Tween-80): 87 % of control | T/C (endpoint: mean survival time, dose: 400.0 mg/kg/injection, schedule: Q04DX003 (ip), vehicle: saline with Tween-80): 94 % of control

Cc1cc(N)on1
T/C [7]: 97 % of control | T/C (endpoint: mean survival time, dose: 100.0 mg/kg/injection, schedule: Q04DX003 (ip), vehicle: saline): 96 % of control | T/C [8]: 106 % of control | T/C (endpoint: mean survival time, dose: 200.0 mg/kg/injection, schedule: Q04DX003 (ip), vehicle: saline): 101 % of control | T/C [9]: 88 % of control | T/C (endpoint: mean survival time, dose: 400.0 mg/kg/injection, schedule: Q04DX003 (ip), vehicle: saline): 123 % of control

CCN=C(Nc1cccc(C2=NCCN2)c1)c1ccc(C(=NCC)Nc2cccc(C3=NCCN3)c2)cc1
T/C (endpoint: mean survival time, dose: 2.0 mg/kg/injection, schedule: Q01DX Z (ip), vehicle: carboxymethylcellulose (CMC)): 109 % of control | T/C (endpoint: mean survival time, dose: 4.0 mg/kg/injection, schedule: Q01DX Z (ip), vehicle: carboxymethylcellulose (CMC)): 95 % of control | T/C (endpoint: mean survival time, dose: 8.0 mg/kg/injection, schedule: Q01DX Z (ip), vehicle: carboxymethylcellulose (CMC)): 103 % of control | T/C (endpoint: mean survival time, dose: 16.0 mg/kg/injection, schedule: Q01DX Z (ip), vehicle: carboxymethylcellulose (CMC)): 107 % of control

O=[N+]([O-])c1ccc(NCSc2ccc(Cl)cc2)cc1
T/C [1]: 101 % of control | T/C [2]: 106 % of control | T/C [3]: 108 % of control

CCCCCc1c(C(F)(F)F)[nH]c(=O)[nH]c1=O
T/C [11]: 90 % of control | T/C [12]: 101 % of control | T/C [13]: 111 % of control

COC(=O)C(NC(=O)C(N)CSC(c1ccccc1)(c1ccccc1)c1ccccc1)C(C)C (configuration not stated) (H-Cys(Trt)-Val-OMe; configuration not given here)
T/C (endpoint: mean survival time, dose: 50.0 mg/kg/injection, schedule: Q01DX009 (ip), vehicle: saline): 104 % of control and 118 % of control | T/C [7]: 109 % of control | T/C [9]: 104 % of control

COc1cc(OC)c(OC)cc1/C=C/c1cc[n+](C)c2ccccc12
T/C (endpoint: mean survival time, dose: 25.0 mg/kg/injection, schedule: Q04DX002 (ip), vehicle: Klucel (hydroxypropylcellulose) (HPC)): 95 % of control | T/C (endpoint: mean survival time, dose: 50.0 mg/kg/injection, schedule: Q04DX002 (ip), vehicle: Klucel (hydroxypropylcellulose) (HPC)): 101 % of control | T/C (endpoint: mean survival time, dose: 100.0 mg/kg/injection, schedule: Q04DX002 (ip), vehicle: Klucel (hydroxypropylcellulose) (HPC)): 109 % of control and 111 % of control

C#CCOP(=O)(C#CC)OCC#C
T/C (endpoint: mean survival time, dose: 25.0 mg/kg/injection, schedule: Q04DX003 (ip), vehicle: Klucel (hydroxypropylcellulose) (HPC)): 93 % of control | T/C (endpoint: mean survival time, dose: 50.0 mg/kg/injection, schedule: Q04DX003 (ip), vehicle: Klucel (hydroxypropylcellulose) (HPC)): 97 % of control | T/C [11]: 98 % of control | T/C [14]: 95 % of control

CCSc1ncc(C(N)=O)c(N)n1
T/C [11]: 97 % of control | T/C [12]: 100 % of control | T/C [13]: 92 % of control

CCCCC(OC(=O)c1ccc([N+](=O)[O-])cc1)C(C)[N+](=O)[O-] (configuration not stated)
T/C [4]: 94 % of control | T/C [5]: 97 % of control | T/C [6]: 92 % of control

CCSc1nc2ccccc2s1
T/C (endpoint: mean survival time, dose: 100.0 mg/kg/injection, schedule: Q01DX001 (ip), vehicle: other): 93 % of control | T/C (endpoint: mean survival time, dose: 200.0 mg/kg/injection, schedule: Q01DX001 (ip), vehicle: other): 98 % of control
